Assay results reported in US8067424B2, “Selective inhibitors for cyclin-dependent kinases” (Emory University, priority 2007, dated 2011).
Read-outs that look alike come from different tables or passages of the source.

How the values were obtained:
Format in all cases: biochemical
MSK1 = MSK1 (Homo sapiens, UniProt O75582); experiment: Kinase screen: MSK1 assay
Experimental: (§1) Generally, the same procedure was used for all assays. Since the total assay volume was 25.5 microliters, 0.5 microliters of inhibitors at 51× assay concentration were added to the plates before any other addition.
(§2) The basic procedure was to add 0.5 microliters inhibitor/control in DMSO to plate. Fifteen microliters of enzyme/substrate/buffer mix were added and incubated for 5 min. Ten microliters MgATP at the relevant concentration were added and incubated for 30 min. The assay was stopped by adding 5 microliters of 3% orthophosphoric acid. The assay was transferred to a p81 filter plate and read in a scintillation counter of 30 sec/well. Note that this assay procedure was not followed for MKK1, which instead involved a two-step assay, and PKC alpha, which required the addition of lipid vesicles.
(§3) MSK1 assay: MSK1 (5-20 mU diluted in 20 mM MOPS pH 7.5, 1 mM EDTA, 0.01% Brij35, 0.1% b-mercaptoethanol, 1 mg/ml BSA) was assayed against a modified Crosstide peptide […] (SEQ ID NO: 4) in a final volume of 25.5 μl containing 8 mM MOPS pH7.0, 0.2 mM EDTA, 30 μM substrate peptide, 10 mM magnesium acetate and 0.02 mM [33P-g-ATP] (50-1000 cpm/pmole) and incubated for 30 min at room temperature Assays were stopped by addition of 5 μl of 0.5 M (3%) orthophosphoric acid and then harvested onto P81 Unifilter plates with a wash buffer of 50 mM orthophosphoric acid.

S6K1 = S6K1 (Homo sapiens, UniProt P23443); experiment: Kinase screen: S6K1/P70 S6K assay
Chain of S6K1 (P23443 whole entry, species assumed): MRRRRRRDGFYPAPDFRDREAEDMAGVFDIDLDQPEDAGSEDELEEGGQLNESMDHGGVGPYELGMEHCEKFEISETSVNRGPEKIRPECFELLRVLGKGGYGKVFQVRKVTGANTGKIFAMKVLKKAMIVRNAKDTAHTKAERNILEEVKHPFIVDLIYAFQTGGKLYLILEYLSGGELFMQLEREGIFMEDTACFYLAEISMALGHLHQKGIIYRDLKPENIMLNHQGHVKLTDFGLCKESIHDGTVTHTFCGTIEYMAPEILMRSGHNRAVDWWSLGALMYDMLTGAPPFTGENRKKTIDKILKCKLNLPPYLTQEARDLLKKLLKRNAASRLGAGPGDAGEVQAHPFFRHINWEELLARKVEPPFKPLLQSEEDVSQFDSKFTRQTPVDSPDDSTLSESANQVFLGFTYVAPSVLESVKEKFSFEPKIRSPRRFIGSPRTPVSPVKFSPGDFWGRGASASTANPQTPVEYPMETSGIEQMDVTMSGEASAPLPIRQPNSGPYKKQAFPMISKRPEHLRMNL
Experimental: as §1, §2
(50-1000 cpm/pmole) and incubated for 30 min at room temperature. Assays were stopped by addition of 5 μl of 0.5 M (3%) orthophosphoric acid and then harvested onto P81 Unifilter plates with a wash buffer of 50 mM orthophosphoric acid.

SGK1 = target: T1, SGK1 (Homo sapiens, UniProt O00141); experiment: Kinase screen: SGK assay
T1 sequence (O00141 1-431): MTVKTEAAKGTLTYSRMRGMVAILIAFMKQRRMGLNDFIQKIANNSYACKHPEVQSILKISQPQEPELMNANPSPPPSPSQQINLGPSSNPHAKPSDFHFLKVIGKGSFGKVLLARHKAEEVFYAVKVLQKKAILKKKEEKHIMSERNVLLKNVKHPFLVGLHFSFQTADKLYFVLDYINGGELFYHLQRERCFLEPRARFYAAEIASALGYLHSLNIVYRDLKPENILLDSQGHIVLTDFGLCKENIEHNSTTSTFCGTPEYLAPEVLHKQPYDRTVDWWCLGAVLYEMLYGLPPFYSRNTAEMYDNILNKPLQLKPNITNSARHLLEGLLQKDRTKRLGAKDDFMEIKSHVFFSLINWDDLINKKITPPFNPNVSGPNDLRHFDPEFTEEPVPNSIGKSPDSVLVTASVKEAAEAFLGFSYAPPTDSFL
Experimental: as §1, §2
as §3, with “SGK” for “MSK1”, “Brij35, 5% glycerol,” for “Brij35,”, “pH 7.0,” for “pH7.0,”, “temperature.” for “temperature”

IKKe = target: T2, IKKe (Homo sapiens, UniProt Q14164); experiment: Kinase screen: IKKe / IKKepsilon (DU14231) assay; conditions: 10 micromolar compound; for remaining activity at 10 µM: read-out: mean activity remaining (as a percentage of the original activity), IKKe
T2 construct: DU14231
T2 sequence (Q14164 1-716): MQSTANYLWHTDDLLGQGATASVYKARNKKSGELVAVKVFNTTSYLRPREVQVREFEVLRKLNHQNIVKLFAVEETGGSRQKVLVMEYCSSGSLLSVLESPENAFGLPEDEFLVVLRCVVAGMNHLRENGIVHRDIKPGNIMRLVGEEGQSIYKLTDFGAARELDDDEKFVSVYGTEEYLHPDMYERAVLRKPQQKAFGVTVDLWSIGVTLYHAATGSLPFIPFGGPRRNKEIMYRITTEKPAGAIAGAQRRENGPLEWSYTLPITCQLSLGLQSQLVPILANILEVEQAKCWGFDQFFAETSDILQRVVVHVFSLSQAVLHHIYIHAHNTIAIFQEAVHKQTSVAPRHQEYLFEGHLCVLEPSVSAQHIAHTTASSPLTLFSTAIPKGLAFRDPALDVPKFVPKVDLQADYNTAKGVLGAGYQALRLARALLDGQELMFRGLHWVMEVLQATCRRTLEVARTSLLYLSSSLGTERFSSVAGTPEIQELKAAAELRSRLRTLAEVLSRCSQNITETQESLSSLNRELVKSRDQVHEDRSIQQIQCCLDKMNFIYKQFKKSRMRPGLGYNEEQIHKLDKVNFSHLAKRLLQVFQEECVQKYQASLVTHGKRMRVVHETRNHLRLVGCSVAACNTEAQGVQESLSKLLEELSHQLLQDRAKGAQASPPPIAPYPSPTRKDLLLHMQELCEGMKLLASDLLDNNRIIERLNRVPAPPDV
Experimental: as §1, §2
(§4) IKKe assay: 5-20 mU of IKKe (diluted in 50 mM Tris (pH 7.5), 0.1 mM EGTA, 1 mg/ml BSA) was assayed against MBP in a final volume of 25.5 μl containing 50 mM Tris (pH 7.5), 0.1 mM EGTA, 0.33 mg/ml MBP, 10 mM magnesium acetate and 0.05 mM [33P-g-ATP] (500-1000 cpm/pmole) and incubated for 30 mins at room temperature. Assays were stopped by addition of 5 μl of 0.5M (3%) orthophosphoric acid. Assays were harvested onto P81 Unifilter plates using a wash buffer of 50 mM orthophosphoric acid.
as §4, with “IKKepsilon (DU14231)” for “IKKe”, “IKKepsilon (DU14231)(diluted” for “IKKe (diluted”

[1] = 10 micromolar compound, read-out: mean activity remaining (as a percentage of the original activity), MSK1
[2] = 10 micromolar compound, read-out: mean activity remaining (as a percentage of the original activity), S6K1
[3] = 10 micromolar compound, read-out: mean activity remaining (as a percentage of the original activity), SGK1

Chain of MSK1 (O75582 whole entry, species assumed): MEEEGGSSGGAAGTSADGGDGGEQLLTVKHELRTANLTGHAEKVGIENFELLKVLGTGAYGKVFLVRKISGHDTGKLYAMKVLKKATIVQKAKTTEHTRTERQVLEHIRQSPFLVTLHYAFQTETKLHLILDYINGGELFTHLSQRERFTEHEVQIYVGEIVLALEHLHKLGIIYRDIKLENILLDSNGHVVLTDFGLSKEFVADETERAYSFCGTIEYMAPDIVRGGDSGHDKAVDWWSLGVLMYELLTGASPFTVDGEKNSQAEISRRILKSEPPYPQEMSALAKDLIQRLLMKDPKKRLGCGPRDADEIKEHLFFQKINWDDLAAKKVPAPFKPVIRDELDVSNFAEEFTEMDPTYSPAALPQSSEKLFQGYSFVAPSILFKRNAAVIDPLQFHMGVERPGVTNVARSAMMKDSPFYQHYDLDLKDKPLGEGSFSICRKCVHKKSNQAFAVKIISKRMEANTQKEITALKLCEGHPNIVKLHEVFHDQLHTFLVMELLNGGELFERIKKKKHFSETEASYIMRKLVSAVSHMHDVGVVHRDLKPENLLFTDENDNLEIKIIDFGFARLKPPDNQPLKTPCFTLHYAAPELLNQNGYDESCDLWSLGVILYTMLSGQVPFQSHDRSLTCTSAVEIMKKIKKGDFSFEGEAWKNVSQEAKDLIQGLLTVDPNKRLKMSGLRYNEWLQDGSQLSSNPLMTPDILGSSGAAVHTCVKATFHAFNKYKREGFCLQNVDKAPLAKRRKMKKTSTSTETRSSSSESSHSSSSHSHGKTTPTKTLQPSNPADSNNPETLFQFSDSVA

| SMILES | remaining activity at 10 µM (MSK1; [1]) [%] | remaining activity at 10 µM (S6K1; [2]) [%] | remaining activity at 10 µM (SGK1; [3]) [%] | remaining activity at 10 µM (IKKe) [%] | other results |
| --- | --- | --- | --- | --- | --- |
| CC(C)c1cnn2c(NCc3ccccc3F)cc(NCCCCCN)nc12 [ICEC-0232] | – | – | – | – | mean activity remaining (as a percentage of the original activity), MSK1 (MSK1; 10 micromolar compound): 42%; mean activity remaining (as a percentage of the original activity), S6K1 (S6K1; 10 micromolar compound): 42%; mean activity remaining (as a percentage of the original activity), SGK1 (SGK1; 10 micromolar compound): 50%; mean activity remaining (as a percentage of the original activity), IKKe (IKKe): 92% |
| CC(C)c1cnn2c(NCc3ccccc3)cc(NCCCCCCCN)nc12 [BS-181] | – | – | – | – | remaining activity at 10 µM (MSK1; MSK1, 10 μM, read-out: Mean Remaining Enzyme Activity (%)): 65%; remaining activity at 10 µM (S6K1; S6K1, 10 μM, read-out: Mean Remaining Enzyme Activity (%)): 95%; remaining activity at 10 µM (SGK1; SGK1, 10 μM, read-out: Mean Remaining Enzyme Activity (%)): 42% |
| CC[C@H](CO)Nc1cc(NCc2ccccc2)n2ncc(C(C)C)c2n1 [ICEC0067] | 86 | 74 | 89 | 103 | – |
| C=C[C@H](CO)Nc1cc(NCc2ccccc2)n2ncc(C(C)C)c2n1 [ICEC0065] | 88 | 78 | 84 | 101 | – |
| CC(C)c1cnn2c(NCc3ccccc3)cc(N[C@@H](CO)[C@H](O)CO)nc12 [ICEC0318, (3S)-3-(7-(Benzylamino)-3-isopropylpyrazolo[1,5-a]pyrimidin-5-ylamino)butane-1,2,4-triol] | 96 | 77 | 92 | 94 | – |
